{"source": "patent US20240016744A1", "about": "“NALTREXONE AND RISPERIDONE COMBINATION SUSTAINED-RELEASE COMPOSITION” (SHENZHEN SCIENCARE MEDICAL INDUSTRIES CO.,, priority 2020, published 2024)", "test_system": "methylamphetamine-induced behavioral sensitization (spontaneous activities of the mice)", "experiment": "Animal pharmacodynamic evaluation: methylamphetamine-induced behavioral sensitization, spontaneous activity", "assay_type": "in vivo, SD mice", "conditions": "methylamphetamine 2 mg/kg i.p., no implant, from day 7; FIG. 9", "excerpt": "All mice were bred under the same conditions. The product of the present disclosure was surgically implanted into each mouse in a model group before an experiment. Except implantation of the product of the present disclosure, other experimental conditions of a positive control group were the same as those of the model group. Mice in a negative control group were normally bred without undergoing experimental treatment. Behavioral differences among the model group, the positive control group, and the negative control group were observed during the experiment.\n36 SD mice weighing […], half male and half female, were taken. The mice were randomly divided into 3 groups: a positive control group, a negative control group, and a model group. The compound sustained-release preparation (prepared in Example 1) was implanted into the back of each mouse in the model group before administration, and a challenge experiment was carried out on the second day after surgery.\nDuring the formative period, methylamphetamine (2 mg/kg) was daily intraperitoneally injected into each mouse in the positive control group and the model group, an equal amount of normal saline was intraperitoneally injected into each mouse in the negative control group for 7 consecutive days. During the conversion period, the drug was withdrawn for 7 days without any treatment. […]"}
{"smiles": "CN[C@@H](C)Cc1ccccc1", "note": "[methylamphetamine]", "values": [{"measurement": "activities of the mice in the positive control group (behavioral sensitization)", "result": "significantly increased (P<0.05)"}]}
